{"source": "patent US20100143899A1", "about": "“METHODS AND PRODUCTS FOR DIAGNOSING CANCER” (University of Vermont and State Agricultural College, priority 2005, published 2010)", "key": {"[1]": {"test_system": "HOXB13 mRNA in melanoma cell lines", "assay": "Quantitative RT-PCR of HOXB13 expression after 5AzadC treatment", "assay_type": "cell-based, human", "conditions": "in 2 out of 3 cell lines with promoter region methylation", "procedure": "(§1) 5AzadC treatment and microarray analysis. Cells were grown to 50% confluence in 100 mm culture plates and treated with 5 μM 5AzadC (Sigma; St. Louis, Mo.) dissolved in growth media. Fresh 5AzadC media was added every 24 hours until the end of the assay (96 hours). RNA and DNA were isolated from a batch of 5AzadC treated cells every 24 hours starting with 0 hour controls. RNA was isolated following 0 hr and 48 hr 5AzadC treatment of six melanoma cell lines (MelJuSo, UACC 903, c8161, Neo-6 c8161, WM1205 and WM35) and used for the re-expression microarray analysis. Total RNA was isolated using the RNeasy kit (Qiagen; Valencia, Calif.) according to manufacturer's instructions. […] Probe set signal calls with p values greater than 0.01 were not further evaluated. […]\n(§2) Bisulfite sequencing and quantitative PCR. […] Particular CpG sites were scored as positive if the C:T peak ratio exceeded 1:3 (at least 25% methylation). Real time quantitative PCR was performed for validation of microarray expression data of selected candidate genes by using 2.5 μl of 100 fold diluted cDNA template and 0.2 μM gene specific primers in a 25 μl PCR reaction using JumpStart SYBR green kit (Sigma) according to manufacturer's instructions in an ABI 7700. The reactions were performed in duplicate, CT values obtained were normalized to GAPDH levels and quantification was performed using the comparative CT method."}, "[2]": {"test_system": "methylated candidate genes in melanoma cell lines", "assay": "Quantitative RT-PCR of candidate genes after 5AzadC treatment", "assay_type": "cell-based, human", "conditions": "expression relative to melanocytes", "procedure": "as §1, §2"}, "[3]": {"test_system": "SYK mRNA in melanoma cell lines", "assay": "Quantitative RT-PCR of SYK expression after 5AzadC treatment", "assay_type": "cell-based, human", "conditions": "in a subset (4/8) of cell lines with SYK methylation", "procedure": "as §1, §2"}, "[4]": {"test_system": "QPCT promoter region in MelJuSo melanoma cell line", "assay": "Bisulfite sequencing of promoter region after 5AzadC treatment", "assay_type": "cell-based, human", "conditions": "48 h, bisulfite sequencing (FIG. 5)", "procedure": "FIG. 5A represents the original sequence for comparison (SEQ ID NO:58).\nBisulfite sequencing and quantitative PCR. DNA was isolated from cells and tissues using standard phenol-chloroform extraction. Bisulfite modification was performed as previously described (24) on DNA from melanocytes, melanoma cell lines prior to and after 48 hr treatment with 5AzadC and DNA from melanoma tissues. PCR reactions were carried out using 50 ng of bisulfite modified DNA in a 30 μl volume with a 0.2 μM primer concentration (primer sequences are provided in the Table 2 with the amplified regions of selected genes provided in Table 3). PCR products were purified using the Qiaquick Gel Extraction kit (Qiagen) and directly sequenced on the ABI 3100-Avant automated DNA sequencer. Particular CpG sites were scored as positive if the C:T peak ratio exceeded 1:3 (at least 25% methylation). Real time quantitative PCR was performed for validation of microarray expression data of selected candidate genes by using 2.5 μl of 100 fold diluted cDNA template and 0.2 μM gene specific primers in a 25 μl PCR reaction using JumpStart SYBR green kit (Sigma) according to manufacturer's instructions in an ABI 7700. The reactions were performed in duplicate, CT values obtained were normalized to GAPDH levels and quantification was performed using the comparative CT method."}, "[5]": {"test_system": "six human melanoma cell lines (MelJuSo, UACC 903, c8161, Neo-6 c8161, WM1205 and WM35)", "assay": "Re-expression microarray analysis after 5AzadC treatment", "assay_type": "cell-based", "conditions": "5 μM 5AzadC, 48 hours, relative to untreated cells; in at least one of the six melanoma cell lines; HG U133A microarray", "procedure": "as §1, with “instructions. Preparation of double stranded cDNA and in-vitro transcription (IVT) was as per manufacturer's recommendations. Biotinylated cRNA obtained from IVT were fragmented and hybridized on Human Genome U133A array as per manufacturer's recommendations (Affymetrix; Santa Clara, Calif.).” for “instructions.”\nIn order to determine DNA methylation-related expression changes, six human melanoma cell lines were treated with 5AzadC and compared for expression changes at 48 hours post-treatment relative to untreated melanoma cell lines. […] No DNA methylation was detected in primary human melanocytes at any of the loci. […]"}}, "note": "“Also recorded” adds a separate entry of the source.", "data": [{"smiles": "Nc1ncn([C@H]2C[C@H](O)[C@@H](CO)O2)c(=O)n1", "note": "[5AzadC, 5-Aza-2′-deoxycytidine]", "values": [{"measurement": "Re-expression of HOXB13", "setting": "[1]", "value": "Re-expression of HOXB13 occurred"}, {"measurement": "Reversal of loss of expression of promoter-methylated candidate genes", "setting": "[2]", "value": "could be reversed in the majority of cases"}, {"measurement": "Upregulation of SYK", "setting": "[3]", "value": "> 2", "unit": "fold"}, {"measurement": "Demethylation of promoter region", "setting": "[4]", "value": "Demethylation was also induced; also recorded: demethylation of the promoter region"}, {"measurement": "Increase of expression of 150 genes upon 5AzadC treatment", "setting": "[5]", "value": "greater than 4 fold"}]}]}
